We go through 16 compounds from ChEMBL document CHEMBL1136636, “Carbonic anhydrase inhibitors: inhibition of the tumor-associated isozyme IX with aromatic and heterocyclic sulfonamides” (Bioorg Med Chem Lett, 2003).

Usually pKi stands for −log10 of the Ki, conventionally taken in molar units.

pKi: −log10 of the molar value.

One test concerns the target Carbonic anhydrase 9 (Homo sapiens, UniProt Q16790).
Another test has as its target Carbonic anhydrase 1 (Homo sapiens, UniProt P00915).
For the next test, the target named is T1, Carbonic anhydrase 4 (Bos taurus, UniProt Q95323).
T1 sequence (Q95323 whole entry): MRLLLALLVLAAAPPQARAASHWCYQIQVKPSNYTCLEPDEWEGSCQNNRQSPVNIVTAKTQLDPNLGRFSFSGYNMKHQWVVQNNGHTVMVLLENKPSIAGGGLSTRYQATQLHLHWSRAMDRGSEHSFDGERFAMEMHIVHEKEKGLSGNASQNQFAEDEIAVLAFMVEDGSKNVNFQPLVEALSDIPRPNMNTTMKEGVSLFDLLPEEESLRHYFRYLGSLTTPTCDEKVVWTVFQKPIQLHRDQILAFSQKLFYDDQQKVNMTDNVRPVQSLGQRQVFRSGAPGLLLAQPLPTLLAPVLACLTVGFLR

Chain of Carbonic anhydrase 1 (P00915 whole entry): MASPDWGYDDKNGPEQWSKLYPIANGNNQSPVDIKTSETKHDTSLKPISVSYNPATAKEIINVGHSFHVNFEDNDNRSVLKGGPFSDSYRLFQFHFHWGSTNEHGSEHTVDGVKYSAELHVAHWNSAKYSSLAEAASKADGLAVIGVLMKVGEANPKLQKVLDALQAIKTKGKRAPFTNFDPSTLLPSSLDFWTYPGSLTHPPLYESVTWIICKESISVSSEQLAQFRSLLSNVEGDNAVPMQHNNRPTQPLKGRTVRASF

With `Cn1nc(S(N)(=O)=O)sc1=N`, the pKi on Carbonic anhydrase 9 was 7.52.
Same read-out and setting: under `Nc1ccc(S(N)(=O)=O)cc1I` stands 6.55.
For the compound `NS(=O)(=O)c1cccc2ccccc12`, the pKi at Carbonic anhydrase 1 was 4.64; at Carbonic anhydrase 9, 7.52; on Carbonic anhydrase 4 it was 6.36.
At Carbonic anhydrase 9, `Nc1ccc(S(N)(=O)=O)cc1F` had a pKi of 6.61.
`NS(=O)(=O)c1ccc(C(=O)O)cc1` [CARZENIDE]: the values for the pKi on Carbonic anhydrase 9 and at Carbonic anhydrase 4 were 7.59 and 7.07, respectively.
For `Nc1cc(C(F)(F)F)c(S(N)(=O)=O)cc1S(N)(=O)=O` [2,4-DISULFAMYLTRIFLUOROMETHYLANILINE], at Carbonic anhydrase 4, the pKi was 6.81.
For the compound `Nc1ccc(S(=O)(=O)NCCc2ccc(S(N)(=O)=O)cc2)cc1`, the pKi on Carbonic anhydrase 9 is 7.62; on Carbonic anhydrase 4, 7.14.
As to `NS(=O)(=O)c1ccc(CO)cc1`, on Carbonic anhydrase 9, the pKi is 7.68.
Still for that read-out and setting: under `NS(=O)(=O)c1ccc(CCO)cc1` stands 7.66.
Compound `Nc1ccc(S(=O)(=O)NCc2ccc(S(N)(=O)=O)cc2)cc1` had a pKi at Carbonic anhydrase 4 of 7.14.
As for `Nc1ccc(S(N)(=O)=O)cc1Cl`, the negative-log Ki (pKi) at Carbonic anhydrase 9 was 6.58.
In the case of `NS(=O)(=O)c1cccc2cccnc12`, the pKi at Carbonic anhydrase 9 was 7.49; on Carbonic anhydrase 4 it was 6.38.
In turn, `Nc1nccc(Nc2ccc(S(N)(=O)=O)cc2)n1` gave a pKi at Carbonic anhydrase 9 of 7.80.
Consider `Nc1ccc(S(=O)(=O)Nc2ccccc2S(N)(=O)=O)cc1`, for which the pKi on Carbonic anhydrase 1 is 6.73; on Carbonic anhydrase 4, 6.84.
For `Nc1ccc(S(=O)(=O)Nc2ccc(S(N)(=O)=O)cc2)cc1`, the pKi is 7.47 at Carbonic anhydrase 9 and 6.89 on Carbonic anhydrase 4.
Consider `Nc1ccccc1S(N)(=O)=O`, for which, on Carbonic anhydrase 9, the pKi was 7.48.
